Results reported in US7026514B2, “Compounds used to treat alcoholism” (Garbil Pharma Investigacion Chile Ltda., priority 2001, dated 2006).

What was measured:
[1] = system: genetically-alcoholic rats, UChB strain; experiment: Anti-alcoholism activity in genetically-alcoholic rats (3 or 6 day treatment); assay type: in vivo, Wistar rats; details: for lowered alcohol consumption: vs reference period
From the text: (§1) As an animal model of alcoholic mammals, including human beings, adult Wistar rats of both sexes, belonging to the UChB strain were used. This strain of rats is the result of a long selection at the University of Chile, and rats belonging to it are known to be volunteer consumers of 10% (v/v) aqueous alcohol (cf. J. Mardones and N. Segovia-Riquelme, “Thirty two years of selection of rats by ethanol preference”: UChA and UChB strains”, Neurobehav. Toxicol. and Teratol. 1983, vol. 5, pp. 171–178). Thus, the rats used in these experiments can be considered genetically alcoholic.
Rats were kept in individual cages at 22° C., with alternative 12 h periods of light and darkness. Besides unlimited access to food, they had ad libitum access to water and 10% (v/v) aqueous alcohol. All experiments were double-blind, and results were analyzed using common statistical methods. As changes in alcohol consumption might be influenced by the eagerness of food and/or water intake, both the consumption of food and of water were measured and analyzed. […] In each experiment the following three periods of time were considered:
a) A reference period, consisting of the three days previous to treatment. The measured consumption values were used as reference for comparison purposes.
b) A treatment period, consisting of the three or six days during which aqueous solutions of the tested compound were intra-gastrically administered, always at the same time of the day. N,N′-bis(3-aminopropyl)cyclohexane-1,4-diamine tetramethanesulfonate monohydrate was administered at two doses, 20 mg/kg of body weight and 40 mg/kg, using aqueous solutions of the tested compound of concentrations 10 g/L and 20 g/L, respectively. Dose of 20 mg/kg was tested both for 3 consecutive days and 6 consecutive days. Dose of 40 mg/kg was tested only for 3 consecutive days.
c) A post-treatment period, consisting of the three days immediate after the treatment period, during which measurement were taken in order to establish the duration of the effect and the reversibility of the changes.

[2] = system: genetically-alcoholic rats, UChB strain; experiment: Anti-alcoholism activity during a prolonged treatment period (30 days); assay type: in vivo, Wistar rats; details: 40 mg/kg, treatment period of 30 days
From the text: as §1
Rats were kept in individual cages at 22° C., with alternative 12 h periods of light and darkness. […] All experiments were double-blind, and results were analyzed using common statistical methods. As changes in alcohol consumption might be influenced by the eagerness of food and/or water intake, both the consumption of food and of water were measured and analyzed. […]
(§2) The effect of the administration of N,N′-bis(3-aminopropyl)-cyclohexane-1,4-diamine tetramethanesulfonate monohydrate to Wistar rats of both sexes belonging to the UChB strain, at a dose of 40 mg/kg during a treatment period of 30 days, was assessed in an experiment analogous to the one of Example 4. Individual consumptions of alcohol and water, measured daily, were grouped in cycles of 3 consecutive days, thus reducing data to ten average values.

[3] = system: genetically-alcoholic rats, UChB strain; experiment: Anti-alcoholism activity during a post-treatment period (27 days); assay type: in vivo, Wistar rats; details: 27 days after the 30-day treatment at 40 mg/kg
Experimental: as §2
The effect of the administration of N,N′-bis(3-aminopropyl)-cyclohexane-1,4-diamine tetramethanesulfonate monohydrate to Wistar rats of both sexes belonging to the UChB strain, during a post-treatment period of 27 days (9 cycles of 3 days) after the prolonged treatment of Example 5, was assessed in an analogous experiment. […] Therefore, the effect of N,N′-bis(3-aminopropyl)-cyclohexane-1,4-diamine tetramethanesulfonate monohydrate lasts substantially for a long time after a prolonged treatment, without recovering the initial levels of alcohol/water consumption.

[4] = system: metabolism of acetaldehyde; experiment: Assessment of disulfiram-like adverse effect (blood acetaldehyde after ethanol, gas chromatography); assay type: in vivo, Wistar male rats
Experimental: The possible disulfiram-like adverse effect of N,N′-bis(3-aminopropyl)cyclohexane-1,4-diamine tetramethanesulfonate monohydrate was studied by gas-chromatographic measurements of the blood concentration of acetaldehyde in standard Wistar male rats, after the intraperitoneal administration of 2.76 g/kg of ethanol in the form of 10% (v/v) aqueous solution. Blood samples were taken from the tail (0.5, 1.0 and 2.0 h after ethanol administration) and from the suprahepatic vein (2.0 h after ethanol administration).

| SMILES | lowered alcohol consumption ([1]; 20 mg/kg intra-gastric for 6 days, first 6 hours after administration, p<0.01) | decrease of alcohol consumption along the post-treatment period ([1]; 40 mg/kg for 3 days, three days after treatment) | lowered alcohol consumption ([1]; 40 mg/kg intra-gastric for 3 days) | decreases of alcohol consumption in the period of 6-24 h ([1]; 6-24 h after administration, compared with first 6 h) | changes in the consumption of both food and water ([1]; 20 or 40 mg/kg, 3 or 6 days) | overall activity as anti-alcoholism agent ([1]; overall results of Example 4) | decrease in alcohol consumption at the end of the treatment period [2] | decrease of alcohol consumption at the end of the post-treatment period [3] | levels of acetaldehyde in blood ([4]; 40 mg/kg oral 2, 6, 8 and 24 h before 2.76 g/kg i.p. ethanol, blood at 0.5, 1.0, 2.0 h) | block of the metabolism of acetaldehyde ([4]; conclusion from blood acetaldehyde after ethanol, disulfiram in a control test) | block of the metabolism of acetaldehyde ([4]; rat, in vivo) |
| --- | --- | --- | --- | --- | --- | --- | --- | --- | --- | --- | --- |
| CS(=O)(=O)O.CS(=O)(=O)O.CS(=O)(=O)O.CS(=O)(=O)O.NCCCNC1CCC(NCCCN)CC1.O (centres unmarked) [N,N′-bis(3-aminopropyl)cyclohexane-1,4-diamine tetramethanesulfonate monohydrate] | 25% | this decrease was kept along the post-treatment period | 27% | smaller | not significant | substantial activity as anti-alcoholism agent | 71% | 24% | did not raised levels of acetaldehyde in blood | does not block the metabolism of acetaldehyde significantly | – |
| CCN(CC)C(=S)SSC(=S)N(CC)CC [disulfiram, tetraethylthiuram disulfide, reference compound] | – | – | – | – | – | – | – | – | – | – | contrary to what happens with disulfiram |
